According to patent US6630469B2, “5-HT7 receptor antagonists” (Bristol-Myers Squibb Company, priority 2000, dated 2003):

Target: T1, human 5-HT7 receptor (Homo sapiens, UniProt P34969)
T1 construct: expressed in transfected cells; host or cells: CHO cells
Experiment: 5-HT7 Receptor Binding Assay
Conditions: membranes of CHO cells expressing human 5-HT7 receptor; 1 nM 3H-5-carboxamidotryptamine; 25° C., 60 minutes
Protocol: 5-HT7 Receptor Binding Assay
Membranes are prepared for binding using the human 5-HT7 receptor expressed in CHO cells. Cells are collected and ruptured using a dounce homogenizer. The cells are spun at 18000× g for 10 minutes and the pellet is resuspended in assay buffer, frozen in liquid nitrogen and kept at −80° C. until the day of the assay.
A total of 30 ug protein is used per well. The assay is carried out in 96-deep-well plates. The assay buffer is 50 mM HEPES. The membrane preparation is incubated at 25° C. for 60 minutes with 0.1 nM to 1000 nM test compound and 1 nM ^3H-5-carboxamidotryptamine. 10 uM serotonin is used as blocking agent to determine non-specific binding. The reaction is terminated by the addition of 1 ml of ice cold 5OmM HEPES buffer and rapid filtration through a Brandel Cell Harvester using Whatman GF/B filters. The filter pads are counted in an LKB Trilux liquid scintillation counter. IC50 values are determined using non-linear regression by Exel-fit.

T1 sequence (P34969 whole entry): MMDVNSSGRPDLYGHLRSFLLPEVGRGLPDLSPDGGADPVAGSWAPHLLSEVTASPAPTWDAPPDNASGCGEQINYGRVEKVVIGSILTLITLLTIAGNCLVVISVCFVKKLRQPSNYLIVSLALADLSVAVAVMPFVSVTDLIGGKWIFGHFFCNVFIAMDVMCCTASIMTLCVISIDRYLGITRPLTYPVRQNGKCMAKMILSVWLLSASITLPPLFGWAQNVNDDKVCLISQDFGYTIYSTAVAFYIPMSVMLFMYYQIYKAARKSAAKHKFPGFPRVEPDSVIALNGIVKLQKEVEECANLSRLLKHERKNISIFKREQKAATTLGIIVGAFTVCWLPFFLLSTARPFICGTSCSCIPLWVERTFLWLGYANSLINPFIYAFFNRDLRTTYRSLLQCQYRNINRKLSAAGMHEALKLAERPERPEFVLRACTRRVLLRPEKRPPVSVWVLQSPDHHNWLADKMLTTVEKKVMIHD

Structure (SMILES)	IC50
CC[C@H](Nc1nc(N)nc(NCCOc2ccccc2)n1)c1ccccc1 [Compound 40, N^2-[2-(Phenoxy)ethyl]-N^4-[(1S)-1-phenylpropyl]-1,3,5-triazine-2,4,6-triamine]	0.051 to 0.1 µM
CC[C@H](Nc1nc(N)nc(NCCc2ccc(C)cc2)n1)c1ccccc1 [Compound 49, N^2-[2-(4-Methylphenyl)ethyl]-N^4-[(1S)-1-phenylpropyl]-1,3,5-triazine-2,4,6-triamine]	0.051 to 0.1 µM
C[C@H](Nc1nc(N)nc(NCCc2ccc(Cl)cc2)n1)c1ccccc1 [Compound 50, N^2-[2-(4-Chlorophenyl)ethyl]-N^4-[(1S)-1-phenylethyl]-1,3,5-triazine-2,4,6-triamine]	0.051 to 0.1 µM
CC[C@H](Nc1nc(N)nc(NCCc2cccc(OC)c2)n1)c1ccccc1 [Compound 52, N^2-[2-(3-Methoxyphenyl)ethyl]-N^4-[(1S)-1-phenylpropyl]-1,3,5-triazine-2,4,6-triamine]	0.051 to 0.1 µM
COc1cccc(CCNc2nc(N)nc(N[C@@H](C)c3ccccc3)n2)c1 [Compound 54, N^2-[2-(3-Methoxyphenyl)ethyl]-N^4-[(1S)-1-phenylethyl]-1,3,5-triazine-2,4,6-triamine]	0.051 to 0.1 µM
C[C@H](Nc1nc(N)nc(NCCc2cccc(C#N)c2)n1)c1ccccc1 [Compound 55, N^2-[2-(3-Cyanophenyl)ethyl]-N^4-[(1S)-1-phenylethyl]-1,3,5-triazine-2,4,6-triamine]	0.051 to 0.1 µM
C[C@H](Nc1nc(N)nc(NCCc2ccccc2)n1)c1cccc2ccccc12 [Compound 56, N^2-[(1S)-1-(1-Napthalenyl)ethyl]-N^4-(2-phenylethyl)-1,3,5-triazine-2,4,6-triamine]	0.051 to 0.1 µM
C[C@H](Nc1nc(N)nc(NCCC2=CCCCC2)n1)c1ccccc1 [Compound 57, N^2-[2-(1-Cyclohexenyl)ethyl]-N^4-[(1S)-1-phenylethyl]-1,3,5-triazine-2,4,6-triamine]	0.051 to 0.1 µM

Continued, values first:

IC50	Structure (SMILES)
0.051 to 0.1 µM	C[C@H](Nc1nc(N)nc(NCCOc2ccccc2)n1)c1ccccc1 [Compound 41, N^2-[2-(Phenoxy)ethyl]-N^4-[(1S)-1-phenylethyl]-1,3,5-triazine-2,4,6-triamine]
0.051 to 0.1 µM	C[C@H](Nc1nc(N)nc(NCCOc2ccccc2)n1)c1cccc2ccccc12 [Compound 42, N^2-[(1S)-1-(1-Napthyl)ethyl]-N^4-[2-(phenoxy)ethyl]-1,3,5-triazine-2,4,6-triamine]
0.051 to 0.1 µM	C[C@H](Nc1nc(N)nc(NCCOc2ccc(F)cc2)n1)c1ccc([N+](=O)[O-])cc1 [Compound 45, N^2-[2-(4-Fluorophenoxy)ethyl]-N^4-[(1S)-1-(4-nitrophenyl)ethyl]-1,3,5-triazine-2,4,6-triamine]
0.051 to 0.1 µM	C[C@H](Nc1nc(N)nc(NCCOc2ccc(F)c(F)c2)n1)c1ccc([N+](=O)[O-])cc1 [Compound 47, N^2-[2-(3,4-Difluorophenoxy)ethyl]-N^4-[(1S)-1-(4-nitrophenyl)ethyl]-1,3,5-triazine-2,4,6-triamine]
0.051 to 0.1 µM	C[C@H](Nc1nc(N)nc(NCCc2ccccc2F)n1)c1ccccc1 [Compound 48, N^2-[2-(2-Fluorophenyl)ethyl]-N^4-[(1S)-1-phenylethyl]-1,3,5-triazine-2,4,6-triamine]
0.051 to 0.1 µM	CC[C@H](Nc1nc(N)nc(NCCc2ccccc2F)n1)c1ccccc1 [Compound 51, N^2-[2-(2-Fluorophenyl)ethyl]-N^4-[(1S)-1-phenylpropyl]-1,3,5-triazine-2,4,6-triamine]
0.051 to 0.1 µM	C[C@H](Nc1nc(N)nc(NCCc2cccc(C(F)(F)F)c2)n1)c1ccccc1 [Compound 53, N^2-[(1S)-1-Phenylethyl]-N^4-{2-[3-(trifluoromethyl)phenyl]ethyl}-1,3,5-triazine-2,4,6-triamine]
0.051 to 0.1 µM	C[C@H](Nc1nc(N)nc(NCCc2cccc(Cl)c2)n1)c1ccc([N+](=O)[O-])cc1 [Compound 58, N^2-[2-(3-Chlorophenyl)ethyl]-N^4-[(1S)-1-(4-nitrophenyl)ethyl]-1,3,5-triazine-2,4,6-triamine]
